Reference: patent publication US5288757A, “Aminosulfonyl urea ACAT inhibitors and a method of lowering blood cholesterol levels therewith” (priority 1993, dated 1994)
Structures can show the parent of a compound that is named as a salt. Where two headings read alike, the source gives them in different places.

Test system: Plasma TC
Assay: in vivo screen designated APCC, plasma total cholesterol in rats on high fat, high cholesterol diet
Set-up: species or system male Sprague-Dawley rats
Details: read-out: % Change in Plasma TC Values (mg/dl); for change in vivo at 50 mg/kg: * dosed at 50 mg/kg
Excerpt: In one in vivo screen designated APCC, male Sprague-Dawley rats (200 to 225 g) were randomly divided into treatment groups and dosed at 4 PM with either vehicle (CMC/Tween) or suspensions of compounds in vehicle. The normal chow diet was then replaced with a high fat, high cholesterol diet with 0.5% cholic acid. The rats consumed this diet ad libitum during the night and were sacrificed at 8 AM to obtain blood samples for cholesterol analysis using standard procedures. Statistical differences between mean cholesterol values for the same vehicle were determined using analysis of variance followed by Fisher's least significant test. Compounds were dosed at 30 mg/kg unless otherwise noted.

[1] = dosed at 30 mg/kg, rat, high fat, high cholesterol diet with 0.5% cholic acid
[2] = rat, high fat, high cholesterol diet with 0.5% cholic acid

Compound | change in vivo at 30 mg/kg [1] | further results
CCCCCCCCCCCCCCCCCCN(C)S(=O)(=O)NC(=O)Nc1c(C(C)C)cccc1C(C)C [Example 31, N-[2,6-bis(1-methylethyl)phenyl]-N'-[(methyloctadecylamino)sulfonyl]urea] | -60% | 
CC(C)c1cccc(C(C)C)c1NC(=O)NS(=O)(=O)NC(c1ccccc1)c1ccccc1 [Example 2, N-[2,6-bis(1-methylethyl)phenyl]-N'-[[(diphenylmethyl)amino]sulfonyl]urea] |  | change in vivo at 50 mg/kg [2]: -14%
CCCCCCCCCCN(CCCCCCCCCC)S(=O)(=O)NC(=O)Nc1c(C(C)C)cccc1C(C)C [Example 26, N-[2,6-bis(1-methylethyl)phenyl]-N'-[(didecylamino)sulfonyl]urea] | -57% | 
CC(C)c1cccc(C(C)C)c1NC(=O)NS(=O)(=O)N(C(C)C)C(C)(C)C [Example 35, N-[2,6-bis(1-methylethyl)phenyl]-N'-[[(1,1-dimethylethyl)(1-methylethyl)amino]sulfonyl]urea] | -71% | 
CCCCN(C)S(=O)(=O)NC(=O)Nc1c(C(C)C)cccc1C(C)C [Example 30, N-[2,6-bis(1-methylethyl)phenyl]-N'-[(butylmethylamino)sulfonyl]urea] | -56% | 
CCCCN(CCCC)S(=O)(=O)NC(=O)Nc1c(C(C)C)cccc1C(C)C [Example 4, N-[2,6-bis(1-methylethyl)phenyl]-N'-[(dibutylamino)sulfonyl]urea] |  | change in vivo at 50 mg/kg [2]: -66%
CCCCN(CCCC)S(=O)(=O)NC(=O)Nc1c(C(C)C)cccc1C(C)C [Example 43, N-[2,6-bis(1-methylethyl)phenyl]-N'-[(dibutylamino)sulfonyl]urea, monosodium salt] |  | change in vivo at 30 mg/kg (Rattus norvegicus): -68%
CCCCCCCCCCCCN(CCCCCCCCCCCC)S(=O)(=O)NC(=O)Nc1c(C(C)C)cccc1C(C)C [Example 27] | 5% | 
CC(C)c1cccc(C(C)C)c1NC(=O)NS(=O)(=O)N1CCC(c2ccccc2)CC1 [Example 13, N-[2,6-bis(1-methylethyl)phenyl]-N'-[(4-phenyl-1-piperidinyl)sulfonyl]urea] | -67% | 
CC(C)c1cccc(C(C)C)c1NC(=O)NS(=O)(=O)N(C(C)C)C(C)C [Example 1, N-[2,6-bis(1-methylethyl)phenyl]-N'-[[bis(1-methylethyl)amino]sulfonyl]ure] |  | change in vivo at 50 mg/kg [2]: -59%
CCCCCCNS(=O)(=O)NC(=O)Nc1c(C(C)C)cccc1C(C)C [Example 16, N-[2,6-bis(1-methylethyl)phenyl]-N'-[(hexylamino)sulfonyl]urea] | -19% | 
CCCCCN(CCCCC)S(=O)(=O)NC(=O)Nc1c(C(C)C)cccc1C(C)C [Example 22, N-[2,6-bis(1-methylethyl)phenyl]-N'-[(dipentylamino)sulfonyl]urea] | -76% | 
CC(C)c1cccc(C(C)C)c1NC(=O)NS(=O)(=O)N(Cc1ccccc1)Cc1ccccc1 [Example 9, N-[2,6-bis(1-methylethyl)phenyl]-N'-[(bis(phenylmethyl)amino)sulfonyl]urea] |  | change in vivo at 50 mg/kg [2]: -59%
CC(C)c1cccc(C(C)C)c1NC(=O)NS(=O)(=O)N(CCCN(C)C)CCCN(C)C [Example 15, N-[[bis[3-(dimethylamino)propyl]amino]sulfonyl]-N'-[2,6-bis(1-methylethyl)phenyl]urea] | -30% | 
CCCCCCCCN(C)S(=O)(=O)NC(=O)Nc1c(C(C)C)cccc1C(C)C [Example 19, N-[2,6-bis(1-methylethyl)phenyl]-N'-[(methyloctylamino)sulfonyl]urea] | -59% | 
CC(C)CN(CC(C)C)S(=O)(=O)NC(=O)Nc1c(C(C)C)cccc1C(C)C [Example 23, N-[2,6-bis(1-methylethyl)phenyl]-N'-[[bis(2-methylpropyl)amino]sulfonyl]urea] | -75% | 
CC(C)c1cccc(C(C)C)c1NC(=O)NS(=O)(=O)N1CCCC1 [Example 38, Urea, N-[2,6-bis(1-methylethyl)phenyl]-N'-(1-pyrrolidinylsulfonyl)] | -49% | 
CC(C)c1cccc(C(C)C)c1NC(=O)NS(=O)(=O)Nc1c(C(C)C)cccc1C(C)C [Example 6, N-[2,6-bis(1-methylethyl)phenyl]-N'-[[[2,6-bis(1-methylethyl)phenyl]amino]sulfonyl]urea] |  | change in vivo at 50 mg/kg [2]: -54%
CCN(CC)S(=O)(=O)NC(=O)Nc1c(C(C)C)cccc1C(C)C [Example 18, N-[2,6-bis(1-methylethyl)phenyl]-N'-[(diethylamino)sulfonyl]urea] | -19% | 

Compound | change in vivo at 30 mg/kg [1] | further results
C=CCN(CC)S(=O)(=O)NC(=O)Nc1c(C(C)C)cccc1C(C)C [Example 24, N-[2,6-bis(1-methylethyl)phenyl]-N'-[[ethyl(2-propenyl)amino]sulfonyl]urea] | -48% | 
CC(C)CCN(CCC(C)C)S(=O)(=O)NC(=O)Nc1c(C(C)C)cccc1C(C)C [Example 25, N-[[bis(3-methylbutyl)amino]sulfonyl]-N'-[2,6-bis(1-methylethyl)phenyl] urea] | -60% | 
CCCCCCCCN(CCCCCCCC)S(=O)(=O)NC(=O)Nc1c(C(C)C)cccc1C(C)C [Example 12, N-[2,6-bis(1-methylethyl)phenyl]-N'-[(dioctylamino)sulfonyl]urea] |  | change in vivo at 50 mg/kg [2]: -41%
CC(C)c1cccc(C(C)C)c1NS(=O)(=O)NC(=O)N(Cc1ccccc1)Cc1ccccc1 [Example 42, N,-[[[2,6-bis(1-methylethyl)phenyl]amino]sulfonyl]-N,N-bis(phenylmethyl) urea] | -44% | 
CC(C)c1cccc(C(C)C)c1NC(=O)NS(=O)(=O)N(C1CCCCC1)C1CCCCC1 [Example 29, N-[2,6-bis(1-methylethyl)phenyl]-N'-[(dicyclohexylamino)sulfonyl]urea] | -64% | 
CCCCN(CC)S(=O)(=O)NC(=O)Nc1c(C(C)C)cccc1C(C)C [Example 34, N-[2,6-bis(1-methylethyl)phenyl]-N'-[(butylethylamino)sulfonyl]urea] | -70% | 
CC(C)c1cccc(C(C)C)c1NC(=O)NS(=O)(=O)N(C)CCc1ccccc1 [Example 20, N-[2,6-bis(1-methylethyl)phenyl]-N'-[[methyl(2-phenylethyl)amino]sulfonyl]urea] | -71% | 
C=CCN(CC=C)S(=O)(=O)NC(=O)Nc1c(C(C)C)cccc1C(C)C [Example 33, N-[2,6-bis(1-methylethyl)phenyl]-N'-[(di-2-propenylamino)sulfonyl]urea] | -67% | 
CC(C)c1cccc(C(C)C)c1NC(=O)NS(=O)(=O)N(Cc1ccccc1)C(C)C [Example 11, N-[2,6-bis(1-methylethyl)phenyl]-N'-[[(1-methylethyl)(phenylmethyl)amino]sulfonyl]urea] |  | change in vivo at 50 mg/kg [2]: -60%
CCC(C)N(C(C)CC)S(=O)(=O)NC(=O)Nc1c(C(C)C)cccc1C(C)C (centres unmarked) [Example 36, N-[2,6-bis(1-methylethyl)phenyl]-N'-[[bis(1-methylpropyl)amino]sulfonyl]urea] | -71% | 
CC(C)c1cccc(C(C)C)c1NC(=O)NS(=O)(=O)NC1c2ccccc2-c2ccccc21 [Example 10, N-[2,6-bis(1-methylethyl)phenyl]-N'-[(9H-fluoren-9-ylamino)sulfonyl]urea] |  | change in vivo at 50 mg/kg [2]: -4%
CCCCCCCCCCCCCCN(C)S(=O)(=O)NC(=O)Nc1c(C(C)C)cccc1C(C)C [Example 37, N-[2,6-bis(l-methylethyl)phenyl]-N'-[(methyltetradecylamino)sulfonyl]urea] | -65% | 
CCCCCCN(CCCCCC)S(=O)(=O)NC(=O)Nc1c(C(C)C)cccc1C(C)C [Example 14] | -77% | 
CC(C)c1cccc(C(C)C)c1NC(=O)NS(=O)(=O)N(CC1CCCO1)CC1CCCO1 (centres unmarked) [Example 17, N-[2,6-bis(1-methylethyl)phenyl]-N'-[[bis[(tetrahydro-2-furanyl)methyl]amino]sulfonyl]urea] | -53% | 
CC(C)c1cccc(C(C)C)c1NC(=O)NS(=O)(=O)N(c1ccccc1)c1ccccc1 [Example 3] | -37% | 
CC(C)c1cccc(C(C)C)c1NC(=O)NS(=O)(=O)N(C(C)C)C1CCCCC1 [Example 21, N-[2,6-bis(1-methylethyl)phenyl]-N'[[cyclohexyl(1-methylethyl)amino]sulfonyl]urea] | -68% | 
CC(C)NS(=O)(=O)NC(=O)Nc1c(C(C)C)cccc1C(C)C [Example 32, N-[2,6-bis(1-methylethyl)phenyl]-N'-[[(1-methylethyl)amino]sulfonyl]urea] | -17% | 
CC(C)c1cccc(C(C)C)c1NC(=O)NS(=O)(=O)NCC(c1ccccc1)c1ccccc1 [Example 7, N-[2,6-bis(1-methylethyl)phenyl]-N'-[[(2,2-diphenylethyl)amino]sulfonyl]urea] |  | change in vivo at 50 mg/kg [2]: -20%
CC(C)c1cccc(C(C)C)c1NC(=O)NS(=O)(=O)N1CCCCC1 [Example 39, Urea, N-[2,6 bis(1-methylethyl)phenyl]-N'-(1-piperidinylsulfonyl)] | -13% | 
